The nature of series [1]: Crystal stability of solid forms of hydrochlorate of compound Z. In kind it is physicochemical. An excerpt:
(§1) The properties of crystalline form A prepared in Examples 11 or 12, crystalline form B prepared in Example 14 and amorphous substance prepared in Example 15 were compared, the results were shown in the following table 6.

Series [2] can be described thus: Hygroscopicity of solid forms of hydrochlorate of compound Z. The format is physicochemical.
Source text: as §1

Each structure is given as a SMILES string. Where a name gives a salt, the structure may show the parent alone. Read-outs that look alike come from different tables or passages of the source.

Regarding `CCCOc1ccc(NC(=O)CN2CCN(C)CC2)cc1-c1nc(CC)c(CC)c(=O)[nH]1` [form A, 5,6-diethyl-2-[2-n-propoxy-5-(2-(4-methylpiperazin-1-yl)acetamido)phenyl]pyrimidin-4(3H)-one hydrochloride monohydrate (Form A)], the Crystal stability entry in series [1] is listed as “stable”; in series [1] (listed as crystal form A) it was “stable properties”. In series [2], the “hygroscopicity, in words” value is “low hygroscopicity”. Besides, the “hygroscopicity, water absorption” value was 65% RH, water absorption 2.48% in series [2] (65% RH) and 80% RH, water absorption 3.41% in series [2] (80% RH).
